Results on 18 molecules are retold here after US8536164B2, “Fused pyridine compounds as casein kinase inhibitors” (Pfizer Inc., priority 2010, dated 2013).

One assay has as its target CKIδ wild type (Homo sapiens, UniProt P48730). The experiment in a line: CK1δ kinase assay (Kinase-Glo). The class given is biochemical. Conditions: 10 μM ATP, 2 nM CKIδ, 85 min at 25° C.; read-out: CK1 δ IC50. Here is the method: The CK1δ kinase assay was performed in a 40 μl final volume in buffer containing 50 mM Tris, pH 7.5, 10 mM MgCl2, 1 mM dithiothreitol, 100 μg/mL BSA with 10 μM ATP, 2 nM CKIδ wild type, and 42 μM peptide substrate PLSRTLp[…] (Flotow et al., 1990) in the presence of 1 μl of CKIδ inhibitor or 4% DMSO. The reaction was incubated for 85 min at 25° C.; detection was carried out as described for the Kinase-Glo Assay (Promega). Luminescent output was measured on the Perkin Elmer Envision plate reader (PerkinElmer, Waltham, Mass.).

In the next assay the target is CKI ε wild type (Homo sapiens, UniProt P49674). The experiment in a line: CK1ε kinase assay (Kinase-Glo). The class given is biochemical. The following applies: 10 μM ATP, 2.5 nM CKI ε, 70 min at 25° C.; read-out: CK1 ε:IC50. The protocol: The CK1ε kinase assay was performed in a 40-μl final volume in buffer containing 50 mM Tris, pH 7.5, 10 mM MgCl2, 1 mM dithiothreitol, 100 μg/mL BSA with 10 μM ATP, 2.5 nM CKI ε wild type, and 42 μM peptide substrate PLSRTLp[…] (Flotow et al., 1990) in the presence of 1 μl of CKI ε inhibitor or 4% DMSO. The reaction was incubated for 70 min at 25° C.; detection was carried out as described for the Kinase-Glo Assay (Promega). Luminescent output was measured on the Perkin Elmer Envision plate reader (PerkinElmer, Waltham, Mass.).
Sequence of CKI ε wild type (P49674 whole entry): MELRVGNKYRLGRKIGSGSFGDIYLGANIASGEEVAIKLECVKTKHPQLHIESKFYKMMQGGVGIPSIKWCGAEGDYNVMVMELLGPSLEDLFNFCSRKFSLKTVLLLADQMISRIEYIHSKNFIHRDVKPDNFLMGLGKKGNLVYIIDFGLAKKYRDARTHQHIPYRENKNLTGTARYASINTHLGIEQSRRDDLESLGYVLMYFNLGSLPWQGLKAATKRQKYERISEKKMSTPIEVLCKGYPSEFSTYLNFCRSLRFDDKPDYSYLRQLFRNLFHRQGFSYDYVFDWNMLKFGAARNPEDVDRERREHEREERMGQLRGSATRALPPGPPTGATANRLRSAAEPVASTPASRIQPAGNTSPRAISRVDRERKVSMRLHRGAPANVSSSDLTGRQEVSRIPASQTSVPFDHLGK
Background: In Kinase-Glo more light means more ATP remaining.

The target of assay [1] is T1, human CK1δ (Cos 7 cells cotransfected with mouse Per3-GFP) (Homo sapiens, UniProt P48730).
T1 construct: His tag of the vector pcDNA4/hisA (only the vector name is printed); expressed in transfected cells; host or cells: Cos 7 cells
T1 sequence (P48730 whole entry): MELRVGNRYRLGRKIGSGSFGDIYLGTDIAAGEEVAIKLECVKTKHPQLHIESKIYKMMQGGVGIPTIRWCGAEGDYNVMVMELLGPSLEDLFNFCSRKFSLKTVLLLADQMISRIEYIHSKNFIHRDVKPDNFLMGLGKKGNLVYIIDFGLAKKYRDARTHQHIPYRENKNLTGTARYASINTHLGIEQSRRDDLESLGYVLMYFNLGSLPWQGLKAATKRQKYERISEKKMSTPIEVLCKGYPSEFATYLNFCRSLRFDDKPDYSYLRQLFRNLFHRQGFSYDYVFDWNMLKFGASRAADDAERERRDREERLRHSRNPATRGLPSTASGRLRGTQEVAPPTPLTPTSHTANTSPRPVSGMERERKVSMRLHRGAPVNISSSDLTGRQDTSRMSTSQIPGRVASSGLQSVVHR
The experiment in a line: CK1 WCA HCS nuclear translocation assay (CK1δ). The following applies: inhibition of mPer3-GFP translocation to the nucleus, overnight exposure, read-out: CK1 δ WCA EC50. The class given is cell-based. The protocol:
CK1 WCA HCS Nuclear Translocation Assay.
Cos 7 cells were maintained at 37° C. in 5% CO2 in Dulbecco's Modified Eagle Medium (Gibco 11995) supplemented with 10% fetal bovine serum. Log-phase cells were dislodged with 5 min treatment of TrypLE Express (Gibco 12605) and viable cell count was determined with Cedex cell counter. Cells were diluted in DMEM medium to a density of 1.5e5 viable cells/mL in ⅔ of the final volume of final transfected cell mix. Cells were cotransfected with two plasmid DNAs, mouse Per3-GFP (green fluorescent protein) in pd2EGFP-N1 vector and human CKI in pcDNA4/hisA vector (for CK1Epsilon at a ratio of 1:5 respectively; for CK1δ at a ratio of 1:11 respectively), using Lipofectamine 2000 reagent (Invitrogen) according to the manufacturer's recommendations. The transfection mix contained approximately 0.83 μg/mL of DNA and 6 μL/mL of Lipofectamine 2000, in a total of ⅓ of the final transfection volume in Opti-MEM I medium (Invitrogen). After 20 min at rt, the cell mix was combined with the DNA transfection mix, per manufacturer instructions. 50 μL of the transfected cell suspension was dispensed per well by multidrop dispenser into Greiner 384-well Cellcoat (PDL) plates (Greiner #781946).
Compounds were solubilized in 100% DMSO, diluted with Opti-MEM I to a 4× concentration before addition to plated cells. After overnight exposure at 37° C. in a CO2 incubator, cells were fixed by the addition of 12% paraformaldehyde (Electron Microscopy Sciences, Hatfield, Pa.) in phosphate-buffered saline (PBS) with 20% sucrose to a final concentration of 4%, and then the cells were incubated for 30 min at rt. Fixative was removed, and cells were washed with PBS and then stained with 0.4 μg/ml Hoechst dye (Invitrogen) in blocking buffer containing 4% goat serum (Vector Labs s-1000) and 0.1% TritonX (Sigma T8787) for 1 h. Cells were washed again with PBS and stored at 4° C. in PBS or scanned immediately with the Cellomics ArrayScan VTI. CKIδ dependent nuclear localization of the GFP-tagged mPer3 protein was quantitated using the Cellomics ArrayScan VTI system utilizing the Cytoplasm to Nucleus translocation bioapplication to calculate the Nuclear-Cytoplasmic Intensity difference. Inhibitors of CK1 δ/ε were tested across a dose response curve to evaluate their ability to inhibit mPer3-GFP translocation to the nucleus. Cells with a total intensity of mPER3:GFP expression equal to or greater than 20,000 are included in analysis.

Some results are limits rather than exact numbers.

Sequence of CKIδ wild type (P48730 whole entry): as above

Regarding `COC[C@H]1CCC[C@H]1N1Cc2nccc(-c3cn(C)nc3-c3ccc(F)cc3)c2C1=O` [Example 44, 4-[3-(4-fluorophenyl)-1-methyl-1H-pyrazol-4-yl]-6-[(1R,2S)-2-(methoxymethyl)cyclopentyl]-6,7-dihydro-5H-pyrrolo[3,4-b]pyridin-5-one], the values for the concentration for half-maximal inhibition (IC50) on CKIδ wild type and at CKI ε wild type were 70.8 nM and 342 nM, respectively. For the same molecule, the EC50 in assay [1] worked out at 437 nM.

On to `Cn1cc(CCN2Cc3nccc(-c4cn(C)nc4-c4ccc(F)cc4)c3C2=O)cn1` [Example 33, 4-[3-(4-fluorophenyl)-1-methyl-1H-pyrazol-4-yl]-6-[2-(1-methyl-1H-pyrazol-4-yl)ethyl]-6,7-dihydro-5H-pyrrolo[3,4-b]pyridin-5-one], for which the IC50 on CKIδ wild type is more than 75.5 nM; at CKI ε wild type, more than 230 nM. For the same molecule, the EC50 in assay [1] is 232 nM.

Consider `CNC1CCc2c(-c3cn(C)nc3-c3ccc(F)cc3)ccnc21` (stereo not drawn) [Example 25, 4-[3-(4-fluorophenyl)-1-methyl-1H-pyrazol-4-yl]-N-methyl-6,7-dihydro-5H-cyclopenta[b]pyridin-7-amine], for which the IC50 is 17.4 nM at CKIδ wild type and 83.7 nM at CKI ε wild type. Moreover, the half-maximal effective concentration (EC50) in assay [1] came to 59.8 nM.

Consider `Cc1ccc(CN2Cc3nccc(-c4cn(C)nc4-c4ccc(F)cc4)c3C2=O)cn1` [Example 52, 4-[3-(4-fluorophenyl)-1-methyl-1H-pyrazol-4-yl]-6-[(6-methylpyridin-3-yl)methyl]-6,7-dihydro-5H-pyrrolo[3,4-b]pyridin-5-one], for which the IC50 at CKIδ wild type was determined as 19 nM; at CKI ε wild type it was 127 nM. Also, in assay [1], the EC50 came to 60.7 nM.

Consider `CC(C)OC(=O)CN1Cc2nccc(-c3cn(C)nc3-c3ccc(F)cc3)c2C1=O` [Example 49, isopropyl {4-[3-(4-fluorophenyl)-1-methyl-1H-pyrazol-4-yl]-5-oxo-5,7-dihydro-6H-pyrrolo[3,4-b]pyridin-6-yl}acetate], for which the IC50 on CKIδ wild type turned out to be 108 nM; at CKI ε wild type, 496 nM. Moreover, the EC50 in assay [1] was 506 nM.

Consider `Cn1cc(-c2ccnc3c2C(=O)N(Cc2ccccc2)C3)c(-c2ccc(F)cc2)n1` [Example 5, 6-benzyl-4-[3-(4-fluorophenyl)-1-methyl-1H-pyrazol-4-yl]-6,7-dihydro-5H-pyrrolo[3,4-b]pyridin-5-one], for which the IC50 at CKIδ wild type amounted to 6.05 nM; on CKI ε wild type, 39 nM. Besides, the EC50 in assay [1] amounted to 16.4 nM.

In the case of `Cn1cc(-c2ccnc3c2CN(Cc2ccccc2)C3)c(-c2ccc(F)cc2)n1` [Example 6, 6-benzyl-4-[3-(4-fluorophenyl)-1-methyl-1H-pyrazol-4-yl]-6,7-dihydro-5H-pyrrolo[3,4-b]pyridine], the IC50 at CKIδ wild type came to 61 nM; on CKI ε wild type, 292 nM. Further, the EC50 in assay [1] turned out to be 204 nM.

Regarding `CC(C)CN1Cc2nccc(-c3cn(C)nc3-c3ccc(F)cc3)c2C1=O` [Example 39, 4-[3-(4-fluorophenyl)-1-methyl-1H-pyrazol-4-yl]-6-isobutyl-6,7-dihydro-5H-pyrrolo[3,4-b]pyridin-5-one], the IC50 worked out at 49.5 nM at CKIδ wild type and 241 nM at CKI ε wild type. In assay [1], the EC50 stood at 188 nM.

As for `Cn1cc(-c2ccnc3c2C(=O)N(CC2CC2)C3)c(-c2ccc(F)cc2)n1` [Example 37, 6-(cyclopropylmethyl)-4-[3-(4-fluorophenyl)-1-methyl-1H-pyrazol-4-yl]-6,7-dihydro-5H-pyrrolo[3,4-b]pyridin-5-one], the values for the IC50 at CKIδ wild type and on CKI ε wild type were 12.9 nM and 82.5 nM, respectively. Besides, the EC50 in assay [1] was determined as 74.1 nM.

In the case of `COC(=O)C1(N2Cc3nccc(-c4cn(C)nc4-c4ccc(F)cc4)c3C2=O)CC1` [Example 31, methyl 1-{4-[3-(4-fluorophenyl)-1-methyl-1H-pyrazol-4-yl]-5-oxo-5,7-dihydro-6H-pyrrolo[3,4-b]pyridin-6-yl}cyclopropanecarboxylate], the results for the IC50 on CKIδ wild type and on CKI ε wild type were 48.1 nM and 187 nM, respectively. Besides, the EC50 in assay [1] came out at 304 nM.

With `Cn1cc(-c2ccnc3c2C(=O)N(CC2CCOC2)C3)c(-c2ccc(F)cc2)n1` (stereo not drawn) [Example 27, 4-[3-(4-fluorophenyl)-1-methyl-1H-pyrazol-4-yl]-6-(tetrahydrofuran-3-ylmethyl)-6,7-dihydro-5H-pyrrolo[3,4-b]pyridin-5-one], the IC50 on CKIδ wild type was determined as 35.3 nM; on CKI ε wild type, 210 nM. Also, the half-maximal effective concentration (EC50) in assay [1] was 369 nM.

Turning to `Cn1cc(-c2ccnc3c2C(=O)N([C@H]2CCOC2=O)C3)c(-c2ccc(F)cc2)n1` [Example 46, 4-[3-(4-fluorophenyl)-1-methyl-1H-pyrazol-4-yl]-6-[(3S)-2-oxotetrahydrofuran-3-yl]-6,7-dihydro-5H-pyrrolo[3,4-b]pyridin-5-one], the figures for the IC50 at CKIδ wild type and at CKI ε wild type were 68.7 nM and 384 nM, respectively. For the same molecule, the EC50 in assay [1] was found to be 1430 nM.

Turning to `Cn1cc(CN2Cc3nccc(-c4cn(C)nc4-c4ccc(F)cc4)c3C2=O)cn1` [Example 26, 4-[3-(4-fluorophenyl)-1-methyl-1H-pyrazol-4-yl]-6-[(1-methyl-1H-pyrazol-4-yl)methyl]-6,7-dihydro-5H-pyrrolo[3,4-b]pyridin-5-one], the values for the IC50 on CKIδ wild type and at CKI ε wild type were 22.6 nM and 123 nM, respectively. Further, in assay [1], the EC50 was found to be 125 nM.

As for `Cn1cc(-c2ccnc3c2C(=O)N(C24CC(C2)C4)C3)c(-c2ccc(F)cc2)n1` [Example 48, 6-bicyclo[1.1.1]pent-1-yl-4-[3-(4-fluorophenyl)-1-methyl-1H-pyrazol-4-yl]-6,7-dihydro-5H-pyrrolo[3,4-b]pyridin-5-one], the values for the IC50 on CKIδ wild type and on CKI ε wild type were 18.4 nM and 80.7 nM, respectively. Moreover, the EC50 in assay [1] came to 130 nM.

As to `Cn1cc(-c2ccnc3c2C(=O)N(C2CCCC2)C3)c(-c2ccc(F)cc2)n1` [Example 32, 6-cyclopentyl-4-[3-(4-fluorophenyl)-1-methyl-1H-pyrazol-4-yl]-6,7-dihydro-5H-pyrrolo[3,4-b]pyridin-5-one], the IC50 at CKIδ wild type was found to be 8.93 nM; on CKI ε wild type, 40.8 nM. In assay [1], the EC50 was determined as 84.9 nM.

Regarding `Cc1noc(CCN2Cc3nccc(-c4cn(C)nc4-c4ccc(F)cc4)c3C2=O)n1` [Example 38, 4-[3-(4-fluorophenyl)-1-methyl-1H-pyrazol-4-yl]-6-[2-(3-methyl-1,2,4-oxadiazol-5-yl)ethyl]-6,7-dihydro-5H-pyrrolo[3,4-b]pyridin-5-one], the results for the IC50 on CKIδ wild type and on CKI ε wild type were 18.6 nM and 92 nM, respectively. For the same molecule, the concentration giving a half-maximal response (EC50) in assay [1] was determined as 71.4 nM.

Consider `CN(C)C(=O)CN1Cc2nccc(-c3cn(C)nc3-c3ccc(F)cc3)c2C1=O` [Example 43, 2-{4-[3-(4-fluorophenyl)-1-methyl-1H-pyrazol-4-yl]-5-oxo-5,7-dihydro-6H-pyrrolo[3,4-b]pyridin-6-yl}-N,N-dimethylacetamide], for which the IC50 at CKIδ wild type stood at 93.2 nM; on CKI ε wild type, 512 nM. Besides, the EC50 in assay [1] worked out at 564 nM.

`CCOCCCN1Cc2nccc(-c3cn(C)nc3-c3ccc(F)cc3)c2C1=O` [Example 51, 6-(3-ethoxypropyl)-4-[3-(4-fluorophenyl)-1-methyl-1H-pyrazol-4-yl]-6,7-dihydro-5H-pyrrolo[3,4-b]pyridin-5-one]: the IC50 on CKIδ wild type turned out to be 14.6 nM; on CKI ε wild type, 63.8 nM. Besides, the EC50 in assay [1] came to 129 nM.

What is called IC50 is the concentration needed to halve the response being measured. As a reminder, the EC50 is the concentration needed to bring the measured effect to its halfway point.
